Reference: ChEMBL document CHEMBL4011606, “Synthesis and antiplasmodial activity of novel indoleamide derivatives bearing sulfonamide and triazole pharmacophores” (Eur J Med Chem, 2017)

Assays:
[1] = system: Plasmodium falciparum; assay: Antiplasmodial activity against chloroquine-sensitive Plasmodium falciparum 3D7 infected in human erythrocytes measured after 72 hrs by SYBR green 1 dye based fluorescence assay; format: functional, cell-based; conditions: 3D7, 72 h
[2] = system: Plasmodium falciparum; assay: Antiplasmodial activity against chloroquine-resistant Plasmodium falciparum K1 infected in human erythrocytes measured after 72 hrs by SYBR green 1 dye based fluorescence assay; format: functional, cell-based; conditions: K1, 72 h
[3] = Resistance index, ratio of IC50 for chloroquine-resistant Plasmodium falciparum K1 to IC50 for chloroquine-sensitive Plasmodium falciparum 3D7; format: functional
[4] = Cytotoxicity against African green monkey Vero cells measured after 3 days by resazurin dye based fluorescence assay; format: cell-based; conditions: chlorocebus sabaeus
[5] = Selectivity index, ratio of CC50 for African green monkey Vero cells to IC50 for chloroquine-sensitive Plasmodium falciparum 3D7; format: toxicity; conditions: read-out: Ratio CC50/IC50
[6] = Selectivity index, ratio of CC50 for African green monkey Vero cells to IC50 for chloroquine-resistant Plasmodium falciparum K1; format: toxicity; conditions: read-out: Ratio CC50/IC50

SMILES: O=C(Cn1cc(Cn2cc(CCCC(=O)NC34CC5CC(CC(C5)C3)C4)c3ccccc32)nn1)Nc1ccc(Br)cc1
- IC50 [1]: > 10 µM
- IC50 [2]: 8.78 µM
- Ratio IC50 [3]: < 0.87

SMILES: Cc1ccc(NC(=O)Cn2cc(Cn3cc(CCCC(=O)NC45CC6CC(CC(C6)C4)C5)c4ccccc43)nn2)cc1C
- IC50 [1]: > 10 µM
- IC50 [2]: 2.5 µM
- CC50 at 72 h [4]: > 250 µM
- selectivity ratio [5]: > 25
- selectivity ratio [6]: > 100
- Ratio IC50 [3]: < 0.25

SMILES: O=C(CCCc1cn(S(=O)(=O)c2ccc(F)cc2)c2ccccc12)NC12CC3CC(CC(C3)C1)C2
- IC50 [1]: 2.94 µM
- IC50 [2]: 3.73 µM
- CC50 at 72 h [4]: > 250 µM
- selectivity ratio [5]: > 85
- selectivity ratio [6]: > 67
- Ratio IC50 [3]: 1.26

SMILES: O=C(Cn1cc(Cn2cc(CCCC(=O)NC3CCCCCC3)c3ccccc32)nn1)Nc1ccc(F)cc1
- IC50 [1]: 8.12 µM
- IC50 [2]: 7.82 µM
- Ratio IC50 [3]: 0.96

SMILES: Cc1ccc(S(=O)(=O)n2cc(CCCC(=O)NC34CC5CC(CC(C5)C3)C4)c3ccccc32)cc1
- IC50 [1]: 3.99 µM
- IC50 [2]: 3.95 µM
- CC50 at 72 h [4]: > 250 µM
- selectivity ratio [5]: > 62
- selectivity ratio [6]: > 63
- Ratio IC50 [3]: 0.98

SMILES: CC(C)(C)c1ccc(S(=O)(=O)n2cc(CCCC(=O)NC3CCCCCC3)c3ccccc32)cc1
- IC50 [1]: 2 µM
- IC50 [2]: 1.6 µM
- CC50 at 72 h [4]: > 250 µM
- selectivity ratio [5]: > 125
- selectivity ratio [6]: > 156
- Ratio IC50 [3]: 0.8

SMILES: O=C(Cn1cc(Cn2cc(CCCC(=O)NC3CCCCCC3)c3ccccc32)nn1)Nc1ccc(Cl)cc1
- IC50 [1]: > 10 µM
- IC50 [2]: > 10 µM
- Ratio IC50 [3]: > 1

SMILES: O=C(CCCc1cn(Cc2ccccc2)c2ccccc12)NC12CC3CC(CC(C3)C1)C2
- IC50 [1]: 3.6 µM
- IC50 [2]: 4.2 µM
- CC50 at 72 h [4]: > 250 µM
- selectivity ratio [5]: > 69
- selectivity ratio [6]: > 59
- Ratio IC50 [3]: 1.16

SMILES: Cn1cc(CCCC(=O)NC2CCCCCC2)c2ccccc21
- IC50 [1]: > 10 µM
- IC50 [2]: > 10 µM
- Ratio IC50 [3]: > 1

SMILES: O=C(Cc1c[nH]c2ccccc12)NCc1cn(CC(=O)Nc2ccc(I)cc2)nn1
- IC50 [1]: 3.83 µM
- IC50 [2]: 2.25 µM
- CC50 at 72 h [4]: > 250 µM
- selectivity ratio [5]: > 65
- selectivity ratio [6]: > 111
- Ratio IC50 [3]: 0.58

SMILES: O=C(Cc1c[nH]c2ccccc12)NCc1cn(CC(=O)Nc2ccc(F)cc2)nn1
- IC50 [1]: 5.16 µM
- IC50 [2]: 7.38 µM
- Ratio IC50 [3]: 1.43

SMILES: O=C(Cn1cc(Cn2cc(CCCC(=O)NC34CC5CC(CC(C5)C3)C4)c3ccccc32)nn1)Nc1ccc(Cl)cc1
- IC50 [1]: > 10 µM
- IC50 [2]: > 10 µM
- Ratio IC50 [3]: > 1

SMILES: O=C(Cc1c[nH]c2ccccc12)NCc1cn(CC(=O)Nc2ccc(Cl)cc2)nn1
- IC50 [1]: > 10 µM
- IC50 [2]: > 10 µM
- Ratio IC50 [3]: > 1

SMILES: O=C(CCCc1cn(Cc2ccc(Cl)cc2)c2ccccc12)NC12CC3CC(CC(C3)C1)C2
- IC50 [1]: 3.4 µM
- IC50 [2]: 5.3 µM
- CC50 at 72 h [4]: > 250 µM
- selectivity ratio [5]: > 73
- selectivity ratio [6]: > 47
- Ratio IC50 [3]: 1.55

SMILES: O=C(CCCc1cn(CCN2CCCC2)c2ccccc12)NC12CC3CC(CC(C3)C1)C2
- IC50 [1]: 7.03 µM
- IC50 [2]: 9.67 µM
- Ratio IC50 [3]: 1.37

SMILES: O=C(Cn1cc(Cn2cc(CCCC(=O)NC3CCCCCC3)c3ccccc32)nn1)Nc1ccc(F)c(Cl)c1
- IC50 [1]: 9.9 µM
- IC50 [2]: 8.64 µM
- Ratio IC50 [3]: 0.87

SMILES: O=C(CCCc1c[nH]c2ccccc12)NC1CCCCCC1
- IC50 [1]: > 10 µM
- IC50 [2]: > 10 µM
- Ratio IC50 [3]: > 1

SMILES: Cn1cc(CCCC(=O)NC23CC4CC(CC(C4)C2)C3)c2ccccc21
- IC50 [1]: 9.73 µM
- IC50 [2]: > 10 µM
- Ratio IC50 [3]: > 1.02

SMILES: O=C(Cn1cc(Cn2cc(CCCC(=O)NC34CC5CC(CC(C5)C3)C4)c3ccccc32)nn1)Nc1ccc(F)cc1
- IC50 [1]: > 10 µM
- IC50 [2]: 8.68 µM
- Ratio IC50 [3]: < 0.86

SMILES: O=C(CCCc1cn(CCN2CCOCC2)c2ccccc12)NC1CCCCCC1
- IC50 [1]: 4.15 µM
- IC50 [2]: 7.04 µM
- CC50 at 72 h [4]: > 250 µM
- selectivity ratio [5]: > 60
- selectivity ratio [6]: > 35
- Ratio IC50 [3]: 1.77

SMILES: Cc1ccc(NC(=O)Cn2cc(CNC(=O)Cc3c[nH]c4ccccc34)nn2)cc1C
- IC50 [1]: 7.02 µM
- IC50 [2]: 6.46 µM
- Ratio IC50 [3]: 0.87

SMILES: O=C(Cn1cc(Cn2cc(CCCC(=O)NC34CC5CC(CC(C5)C3)C4)c3ccccc32)nn1)Nc1ccc(I)cc1
- IC50 [1]: > 10 µM
- IC50 [2]: > 10 µM
- Ratio IC50 [3]: > 1

SMILES: Cc1ccc(NC(=O)Cn2cc(Cn3cc(CCCC(=O)NC4CCCCCC4)c4ccccc43)nn2)cc1C
- IC50 [1]: > 10 µM
- IC50 [2]: > 10 µM
- Ratio IC50 [3]: > 1

SMILES: CCCn1cc(CCCC(=O)NC23CC4CC(CC(C4)C2)C3)c2ccccc21
- IC50 [1]: 4.79 µM
- IC50 [2]: 7.37 µM
- Ratio IC50 [3]: 1.53

SMILES: O=C(CCCc1cn(Cc2ccc(Br)cc2)c2ccccc12)NC1CCCCCC1
- IC50 [1]: > 10 µM
- IC50 [2]: > 10 µM
- Ratio IC50 [3]: > 1

SMILES: Cc1cc(S(=O)(=O)n2cc(CCCC(=O)NC34CC5CC(CC(C5)C3)C4)c3ccccc32)c(C)cc1Cl
- IC50 [1]: 1.93 µM
- IC50 [2]: 2.12 µM
- CC50 at 72 h [4]: > 250 µM
- selectivity ratio [5]: > 129
- selectivity ratio [6]: > 112
- Ratio IC50 [3]: 1.15

SMILES: O=C(Cn1cc(Cn2cc(CCCC(=O)NC3CCCCCC3)c3ccccc32)nn1)Nc1ccccc1Cl
- IC50 [1]: > 10 µM
- IC50 [2]: > 10 µM
- Ratio IC50 [3]: > 1

SMILES: O=C(CCCc1cn(S(=O)(=O)c2ccccc2)c2ccccc12)NC1CCCCCC1
- IC50 [1]: 7.37 µM
- IC50 [2]: 6.06 µM
- Ratio IC50 [3]: 0.82

SMILES: O=C(Cn1cc(Cn2cc(CCCC(=O)NC3CCCCCC3)c3ccccc32)nn1)Nc1ccc(I)cc1
- IC50 [1]: > 10 µM
- IC50 [2]: > 10 µM
- Ratio IC50 [3]: > 1

SMILES: CC(C)(C)c1ccc(S(=O)(=O)n2cc(CCC(=O)NC34CC5CC(CC(C5)C3)C4)c3ccccc32)cc1
- IC50 [1]: 5.8 µM
- IC50 [2]: 6.19 µM
- Ratio IC50 [3]: 1.06

SMILES: O=C(CCCc1cn(Cc2cn(Cc3ccccc3)nn2)c2ccccc12)NC1CCCCCC1
- IC50 [1]: > 10 µM
- IC50 [2]: > 10 µM
- Ratio IC50 [3]: > 1

SMILES: O=C(Cn1cc(Cn2cc(CCCC(=O)NC3CCCCCC3)c3ccccc32)nn1)Nc1ccc(Br)cc1
- IC50 [1]: > 10 µM
- IC50 [2]: 8.7 µM
- Ratio IC50 [3]: < 0.87

SMILES: O=C(Cc1c[nH]c2ccccc12)NCc1cn(CC(=O)Nc2ccc(Br)cc2)nn1
- IC50 [1]: 8.77 µM
- IC50 [2]: > 10 µM
- Ratio IC50 [3]: > 1.14

SMILES: CC(C)(C)c1ccc(S(=O)(=O)n2cc(CCC(=O)NC3CCCCCC3)c3ccccc32)cc1
- IC50 [1]: 6.24 µM
- IC50 [2]: 5.76 µM
- Ratio IC50 [3]: 0.92

SMILES: O=C(CCCc1c[nH]c2ccccc12)NC12CC3CC(CC(C3)C1)C2
- IC50 [1]: > 10 µM
- IC50 [2]: > 10 µM
- Ratio IC50 [3]: > 1

SMILES: CCN(CC)CCCC(C)Nc1ccnc2cc(Cl)ccc12 (configuration not stated) [CHLOROQUINE]
- CC50 at 72 h [4]: 226 µM

SMILES: C=CCn1cc(CCCC(=O)NC23CC4CC(CC(C4)C2)C3)c2ccccc21
- IC50 [1]: 5.04 µM
- IC50 [2]: 7.56 µM
- Ratio IC50 [3]: 1.5

SMILES: C=CCn1cc(CCCC(=O)NC2CCCCCC2)c2ccccc21
- IC50 [1]: > 10 µM
- IC50 [2]: > 10 µM
- Ratio IC50 [3]: > 1

SMILES: O=C(CCCc1cn(Cc2ccc(Cl)cc2)c2ccccc12)NC1CCCCCC1
- IC50 [1]: > 10 µM
- IC50 [2]: > 10 µM
- Ratio IC50 [3]: > 1

SMILES: O=C(Cc1c[nH]c2ccccc12)NCc1cn(CC(=O)Nc2ccccc2Cl)nn1
- IC50 [1]: > 10 µM
- IC50 [2]: > 10 µM
- Ratio IC50 [3]: > 1

SMILES: O=C(Cc1c[nH]c2ccccc12)NCc1cn(CC(=O)Nc2ccc(F)c(Cl)c2)nn1
- IC50 [1]: > 10 µM
- IC50 [2]: > 10 µM
- Ratio IC50 [3]: > 1

SMILES: O=C(CCCc1cn(CCN2CCCCC2)c2ccccc12)NC12CC3CC(CC(C3)C1)C2
- IC50 [1]: 5.63 µM
- IC50 [2]: > 10 µM
- Ratio IC50 [3]: > 1.37

SMILES: O=C(CCCc1cn(Cc2ccccc2)c2ccccc12)NC1CCCCCC1
- IC50 [1]: 9.56 µM
- IC50 [2]: > 10 µM
- Ratio IC50 [3]: > 1.04

SMILES: O=C(CCCc1cn(S(=O)(=O)c2cccs2)c2ccccc12)NC1CCCCCC1
- IC50 [1]: > 10 µM
- IC50 [2]: 5.55 µM
- Ratio IC50 [3]: < 0.55
